# Assay results published in PubChem BioAssay AID1918991 (Molecular Pharmacology Branch, DTP, NCI, 2023).
# System: 186277-243-T-J2-PDC complex spheroid growth
# Assay: Anticancer human tumor 186277-243-T-J2-PDC patient-derived colon adenocarcinoma cell line growth inhibition [AhR]
# Settings: for IC50: curve of first compound; for viability, T/C: stronger effect = lower value
# Summary of the method: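 Spheroids combined tumor cells with HUVEC endothelial cells and human MSCs as stroma. AhR antagonists were paired with standard or investigational drugs, each dosed in half-log steps down from near clinical Cmax, or from 10 microM where Cmax was unknown.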
# [1] = second compound 0.1 µM, first compound 0.000316 µM
# [2] = second compound 0.1 µM, first compound 0.001 µM
# [3] = second compound 0.1 µM, first compound 0.00316 µM
# [4] = second compound 0.1 µM, first compound 0.01 µM
# [5] = second compound 0.1 µM, first compound 0.0316 µM
# [6] = second compound 0.1 µM, first compound 0.1 µM
# [7] = second compound 0.316 µM, first compound 0.000316 µM
# [8] = second compound 0.316 µM, first compound 0.001 µM
# [9] = second compound 0.316 µM, first compound 0.00316 µM
# [10] = second compound 0.316 µM, first compound 0.01 µM
# [11] = second compound 0.316 µM, first compound 0.0316 µM
# [12] = second compound 0.316 µM, first compound 0.1 µM
# [13] = second compound 1 µM, first compound 0.000316 µM
# [14] = second compound 1 µM, first compound 0.001 µM
# [15] = second compound 1 µM, first compound 0.00316 µM
# [16] = second compound 1 µM, first compound 0.01 µM
# [17] = second compound 1 µM, first compound 0.0316 µM
# [18] = second compound 1 µM, first compound 0.1 µM
# [19] = second compound 3.16 µM, first compound 0.000316 µM
# [20] = second compound 3.16 µM, first compound 0.001 µM
# [21] = second compound 3.16 µM, first compound 0.00316 µM
# [22] = second compound 3.16 µM, first compound 0.01 µM
# [23] = second compound 3.16 µM, first compound 0.0316 µM
# [24] = second compound 3.16 µM, first compound 0.1 µM
# [25] = second compound 10 µM, first compound 0.000316 µM
# [26] = second compound 10 µM, first compound 0.001 µM
# [27] = second compound 10 µM, first compound 0.00316 µM
# [28] = second compound 10 µM, first compound 0.01 µM
# [29] = second compound 10 µM, first compound 0.0316 µM
# [30] = second compound 10 µM, first compound 0.1 µM
# 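Further: spheroids exposed to compounds for seven days before the viability read.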
# 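Wherever viability, T/C is given: luminescent signal used as a stand-in for viable cell amount; 100% = DMSO vehicle control wells.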
Structure (SMILES),IC50 (second compound 0.1 µM) [nM],IC50 (second compound 0.316 µM) [nM],IC50 (second compound 1 µM) [nM],IC50 (second compound 3.16 µM) [nM],IC50 (second compound 10 µM) [nM],"viability, T/C [1] [%]","viability, T/C [2] [%]","viability, T/C [3] [%]","viability, T/C [4] [%]","viability, T/C [5] [%]","viability, T/C [6] [%]","viability, T/C [7] [%]","viability, T/C [11] [%]","viability, T/C [12] [%]","viability, T/C [17] [%]","viability, T/C [18] [%]","viability, T/C [23] [%]","viability, T/C [24] [%]","viability, T/C [29] [%]","viability, T/C [30] [%]",also measured
CC[C@@]1(O)C(=O)OCc2c1cc1n(c2=O)Cc2cc3c(CN(C)C)c(O)ccc3nc2-1 + Cc1ccccc1N=Nc1ccc(NC(=O)c2ccnn2C)c(C)c1,> 100,> 100,> 100,> 100,> 100,97.7,113,107,133,119,113,113,114,105,116,119,107,104,90.5,99.3,"viability, T/C [8]: 101%; viability, T/C [9]: 113%; viability, T/C [10]: 115%; viability, T/C [13]: 97.8%; viability, T/C [14]: 103%; viability, T/C [15]: 110%; viability, T/C [16]: 123%; viability, T/C [19]: 94.9%; viability, T/C [20]: 92.9%; viability, T/C [21]: 116%; viability, T/C [22]: 135%; viability, T/C [25]: 81.8%; viability, T/C [26]: 92.2%; viability, T/C [27]: 98.1%; viability, T/C [28]: 117%"
CC[C@@]1(O)C(=O)OCc2c1cc1n(c2=O)Cc2cc3c(CN(C)C)c(O)ccc3nc2-1 + CC(CO)NC(=O)c1cc(-c2ccc(Cl)cc2)nn(-c2cnn(C)c2)c1=O,14.1,14.5,15,11.3,12.7,101,101,89.5,57.3,32.2,21.5,96.5,30.1,22.2,27.6,22,24.7,22.7,26.5,24.1,"viability, T/C [8]: 102%; viability, T/C [9]: 93.5%; viability, T/C [10]: 59.6%; viability, T/C [13]: 90.4%; viability, T/C [14]: 102%; viability, T/C [15]: 91%; viability, T/C [16]: 62.2%; viability, T/C [19]: 88.3%; viability, T/C [20]: 102%; viability, T/C [21]: 77.1%; viability, T/C [22]: 55.5%; viability, T/C [25]: 75%; viability, T/C [26]: 75.4%; viability, T/C [27]: 78.3%; viability, T/C [28]: 56.2%"
COc1cc(Nc2ncc3c(n2)-c2ccc(Cl)cc2C(c2c(F)cccc2OC)=NC3)ccc1C(=O)O + CC(CO)NC(=O)c1cc(-c2ccc(Cl)cc2)nn(-c2cnn(C)c2)c1=O,< 31.6,< 31.6,< 31.6,< 31.6,< 31.6,–,–,–,–,27.6,22.9,–,26.1,23.8,30.3,22,26.1,24.2,23.6,22.3,"viability, T/C (second compound 0.1 µM, first compound 0.316 µM): 21.5%; viability, T/C (second compound 0.1 µM, first compound 1 µM): 20.5%; viability, T/C (second compound 0.1 µM, first compound 3.16 µM): 22.3%; viability, T/C (second compound 0.1 µM, first compound 10 µM): 27.9%; viability, T/C (second compound 0.316 µM, first compound 0.316 µM): 22.4%; viability, T/C (second compound 0.316 µM, first compound 1 µM): 18.9%; viability, T/C (second compound 0.316 µM, first compound 3.16 µM): 22.7%; viability, T/C (second compound 0.316 µM, first compound 10 µM): 22.7%; viability, T/C (second compound 1 µM, first compound 0.316 µM): 21.9%; viability, T/C (second compound 1 µM, first compound 1 µM): 20.7%; viability, T/C (second compound 1 µM, first compound 3.16 µM): 22.2%; viability, T/C (second compound 1 µM, first compound 10 µM): 25%; viability, T/C (second compound 3.16 µM, first compound 0.316 µM): 20.7%; viability, T/C (second compound 3.16 µM, first compound 1 µM): 19.3%; viability, T/C (second compound 3.16 µM, first compound 3.16 µM): 23%; viability, T/C (second compound 3.16 µM, first compound 10 µM): 26%; viability, T/C (second compound 10 µM, first compound 0.316 µM): 21.5%; viability, T/C (second compound 10 µM, first compound 1 µM): 21.2%; viability, T/C (second compound 10 µM, first compound 3.16 µM): 23.4%; viability, T/C (second compound 10 µM, first compound 10 µM): 26.1%"
